Each structure is given as a SMILES string. Converted amounts (≈) assume the structure as drawn. Where two headings read alike, the source gives them in different places.

What all share (assay): In vitro antibacterial activity test (broth microdilution)
Assay type in all cases: cell-based
In general terms: Broth dilution looks for growth in wells or tubes with falling amounts of substance.

Assay [1] deals with K. pneumoniae 2011E. As to conditions: Klebsiella pneumoniae, 2011E. In outline: (§1)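 Compounds were dissolved in DMSO at 10,240 ug/mL stock, diluted two-fold in DMSO and then twenty-fold in sterile water. Final test concentrations spanned 0.0626 to 128 ug/mL with 2.5% (V/V) DMSO, and MIC90 was read by CLSI broth microdilution.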
Assay [2] concerns A. baumannii 52. As to conditions: Acinetobacter baumannii. Put shortly:
as §1

The test system of assay [3] is A. calcoaceticus ATCC15473. As to conditions: Acinetobacter calcoaceticus. Put shortly:
as §1

For assay [4], the system named is P. aeruginosa 1912E. As to conditions: Pseudomonas aeruginosa, 1912E. Put shortly:
as §1

Assay [5] concerns K. pneumoniae β9. As to conditions: Klebsiella pneumoniae. Put shortly: as §1
Assay [6] has as its system E. coli AG100. The settings on record: Escherichia coli. Put shortly:
as §1

Assay [7] deals with M. catarrhalis 2524. As to conditions: Moraxella catarrhalis. Put shortly:
as §1

For assay [8], the system named is K. pneumoniae β10. As to conditions: Klebsiella pneumoniae. Put shortly: as §1
Assay [9] relates to P. aeruginosa 43. As to conditions: Pseudomonas aeruginosa. Put shortly: as §1
Assay [10] relates to K. pneumoniae β14. The settings on record: Klebsiella pneumoniae. Put shortly: as §1
For assay [11], the system named is A. baumannii 46. Put shortly:
as §1

For assay [12], the system named is K. pneumoniae β11. As to conditions: Klebsiella pneumoniae. In outline: as §1
Assay [13] has as its system P. aeruginosa 6065Y. As to conditions: Pseudomonas aeruginosa. Put shortly: as §1
Assay [14] has as its system E. cloacae β19. As to conditions: Enterobacter cloacae. Put shortly: as §1
The test system of assay [15] is A. baumannii 49. Put shortly: as §1
Assay [16] deals with K. pneumoniae β13. As to conditions: Klebsiella pneumoniae. Put shortly: as §1
The subject of assay [17] is P. aeruginosa 40. In outline:
as §1

In assay [18] the test system is E. coli β4. The settings on record: Escherichia coli. In outline:
as §1

The subject of assay [19] is P. aeruginosa 37. As to conditions: Pseudomonas aeruginosa, 37, P. aeruginosa 37. Put shortly: as §1
Where [20] appears, read: ATCC15473, A. calcoaceticus ATCC15473.
Setting [21] is: Acinetobacter baumannii, 46, A. baumannii 46.
Where [22] appears, read: Acinetobacter baumannii, 49, A. baumannii 49.

Turning to `CC(C)(O/N=C(\C(=O)N[C@@H]1C(=O)N2C(C(=O)[O-])=C(/C=C/C[n+]3cnc(N)c(NCCNC(=O)c4cc(=O)c(O)cn4O)c3)CSC12)c1nsc(N)n1)C(=O)O` (stereo partly shown) [Compound 25], the MIC90 (usually the lowest concentration that inhibits either 90% of growth or 90% of the strains tested, depending on the study) in assay [1] (K. pneumoniae 2011E, read-out: MIC90) was 0.25 µg/mL (≈ 0.312 µM); in assay [2] (A. baumannii 52, read-out: MIC90) it was 8 µg/mL (≈ 9.99 µM); in assay [3] (A. calcoaceticus ATCC15473, read-out: MIC90), 0.25 µg/mL (≈ 0.312 µM); in [4] (read-out: MIC90), 0.25 µg/mL (≈ 0.312 µM); in assay [5] (K. pneumoniae β9, read-out: MIC90) it was less than 0.0625 µg/mL; in [6] (AG100, E. coli AG100, read-out: MIC90) it was less than 0.0625 µg/mL. Besides, the MIC90 in [7] (M. catarrhalis 2524, read-out: MIC90) was less than 0.0625 µg/mL; in [8] (K. pneumoniae β10, read-out: MIC90), less than 0.0625 µg/mL; in assay [9] (P. aeruginosa 43, read-out: MIC90), 0.25 µg/mL (≈ 0.312 µM); in assay [10] (read-out: MIC90), 16 µg/mL (≈ 20 µM); in assay [11] (Acinetobacter baumannii, A. baumannii 46, read-out: MIC90) it was 0.5 µg/mL (≈ 0.624 µM); in assay [12] (K. pneumoniae β11, read-out: MIC90) it was greater than 128 µg/mL. Further, the MIC90 in [13] (read-out: MIC90) was 0.5 µg/mL (≈ 0.624 µM); in assay [14] (read-out: MIC90) it was 1 µg/mL (≈ 1.25 µM); in [15] (Acinetobacter baumannii, A. baumannii 49, read-out: MIC90) it was 128 µg/mL (≈ 160 µM); in assay [16] (K. pneumoniae β13, read-out: MIC90), less than 0.0625 µg/mL; in assay [17] (Pseudomonas aeruginosa, 40, P. aeruginosa 40, read-out: MIC90), less than 0.0625 µg/mL; in assay [18] (read-out: MIC90), less than 0.0625 µg/mL. Besides, the MIC90 in assay [19] (read-out: MIC90) is less than 0.0625 µg/mL.

Regarding `CC(C)(O/N=C(\C(=O)N[C@@H]1C(=O)N2C(C(=O)[O-])=C(C[n+]3cnc(NCCCCN)c(NCCCCN)c3)CSC12)c1csc(N)n1)C(=O)O` (stereo partly shown) [Compound 41], the MIC90 in assay [1] is 4 µg/mL (≈ 5.56 µM); in [2] (52), 32 µg/mL (≈ 44.5 µM); in assay [3] (setting [20]), 1 µg/mL (≈ 1.39 µM); in assay [4], 4 µg/mL (≈ 5.56 µM); in [5], 2 µg/mL (≈ 2.78 µM); in assay [6] (AG100) it was 1 µg/mL (≈ 1.39 µM). In addition, the MIC90 in [7] (2524) stood at 0.125 µg/mL (≈ 0.174 µM); in [8], 2 µg/mL (≈ 2.78 µM); in assay [9] (43), 128 µg/mL (≈ 178 µM); in assay [10], 2 µg/mL (≈ 2.78 µM); in [11] (setting [21]), 32 µg/mL (≈ 44.5 µM); in assay [12], 8 µg/mL (≈ 11.1 µM). Further, the MIC90 in assay [13] (6065Y) was found to be 16 µg/mL (≈ 22.2 µM); in [14], 4 µg/mL (≈ 5.56 µM); in assay [15] (setting [22]) it was 32 µg/mL (≈ 44.5 µM); in assay [16], 2 µg/mL (≈ 2.78 µM); in assay [17] (Pseudomonas aeruginosa, 40), 4 µg/mL (≈ 5.56 µM); in assay [18] it was 1 µg/mL (≈ 1.39 µM). The molecule further yielded an MIC90 in assay [19] of 8 µg/mL (≈ 11.1 µM).

On to `CC(C)(O/N=C(\C(=O)N[C@@H]1C(=O)N2C(C(=O)[O-])=C(/C=C/C[n+]3cnc(N)c(NC(=O)CN)c3N)CSC12)c1csc(N)n1)C(=O)O` (stereo partly shown) [Compound 43], for which the MIC90 in [1] was 0.5 µg/mL (≈ 0.74 µM); in [2] (52) it was greater than 128 µg/mL; in assay [3] (setting [20]) it was 4 µg/mL (≈ 5.92 µM); in assay [4], 4 µg/mL (≈ 5.92 µM); in [5], 1 µg/mL (≈ 1.48 µM); in assay [6] (AG100), 0.25 µg/mL (≈ 0.37 µM). Further, the MIC90 in [7] (2524) is less than 0.0625 µg/mL; in assay [8], 0.5 µg/mL (≈ 0.74 µM); in assay [9] (43) it was greater than 128 µg/mL; in [10], 1 µg/mL (≈ 1.48 µM); in [11] (setting [21]), 32 µg/mL (≈ 47.4 µM); in [12], 32 µg/mL (≈ 47.4 µM). Besides, the MIC90 was 16 µg/mL (≈ 23.7 µM) in [13] (6065Y); 0.5 µg/mL (≈ 0.74 µM) in assay [14]; greater than 128 µg/mL in assay [15] (setting [22]); 0.5 µg/mL (≈ 0.74 µM) in assay [16]; 16 µg/mL (≈ 23.7 µM) in assay [17] (Pseudomonas aeruginosa, 40); 0.5 µg/mL (≈ 0.74 µM) in assay [18]. Further, in [19], the MIC90 turned out to be 32 µg/mL (≈ 47.4 µM).

With `CC(C)(O/N=C(\C(=O)N[C@@H]1C(=O)N2C(C(=O)[O-])=C(/C=C/C[n+]3cnc(N)c(NCCN)c3N)CSC12)c1csc(N)n1)C(=O)O` (stereo partly shown) [Compound 44], the MIC90 in assay [1] was 0.5 µg/mL (≈ 0.756 µM); in assay [2] (52), greater than 128 µg/mL; in [3] (setting [20]), 1 µg/mL (≈ 1.51 µM); in [4] it was 8 µg/mL (≈ 12.1 µM); in [5], 1 µg/mL (≈ 1.51 µM); in assay [6] (AG100), 0.25 µg/mL (≈ 0.378 µM). The MIC90 in [7] (2524) was less than 0.0625 µg/mL; in assay [8], 0.5 µg/mL (≈ 0.756 µM); in assay [9] (43) it was 128 µg/mL (≈ 193 µM); in assay [10] it was 1 µg/mL (≈ 1.51 µM); in [11] (setting [21]), 16 µg/mL (≈ 24.2 µM); in [12], 32 µg/mL (≈ 48.4 µM). In addition, the MIC90 in assay [13] (6065Y) is 32 µg/mL (≈ 48.4 µM); in assay [14] it was 0.5 µg/mL (≈ 0.756 µM); in [15] (setting [22]), greater than 128 µg/mL; in [16], 1 µg/mL (≈ 1.51 µM); in assay [17] (Pseudomonas aeruginosa, 40), 16 µg/mL (≈ 24.2 µM); in assay [18], 0.5 µg/mL (≈ 0.756 µM). Besides, the MIC90 in assay [19] is 16 µg/mL (≈ 24.2 µM).

The record behind these values is US9630977B2, “Cephalosporin derivatives and pharmaceutical compositions thereof” (Legochem Biosciences, Inc., priority 2011, dated 2017).
